# In publication PMC8292346, “Dysfunction of the key ferroptosis-surveilling systems hypersensitizes mice to tubular necrosis during acute kidney injury” (Nature Communications, 2021):
# Experiment: Inhibited co-autoxidation of egg phosphatidylcholine liposomes and STY-BODIPY (radical-trapping antioxidant activity)
# Method: Inhibitors were then added (5 μl aliquots) at desired concentrations to the appropriate wells followed by vigorous mixing. […] Experiments were performed in triplicate using HPLC grade solvents and kinetic data is given as an average of three independent measurements. […]
substance,measurement,setting,value
"2,2,7,8-pentamethyl-6-chromanol [PMC, reference compound]",ΔSTY-BODIPY,time 53820 s,-0.366 µM
same,ΔSTY-BODIPY,time 53880 s,-0.3653 µM
same,ΔSTY-BODIPY,time 53940 s,-0.3652 µM
same,ΔSTY-BODIPY,time 54000 s,-0.3628 µM
